From patent publication US11389447B2 (Janssen Sciences Ireland Unlimited Company, priority 2006, dated 2022)
Like-named read-outs stand apart in the source and are kept apart here.

Experiments:
[1] = Kinetic study: plasma kinetics of TMC278 after single IM or SC injection of a nanosuspension; format: in vivo, male beagle dogs; details: male, beagle, dog, plasma, sc, 5 mg/kg; for concentration at 0 h / concentration at 1 h / concentration at 3 h / concentration at 8 h / concentration at 24 h / concentration at 48 h / concentration at 72 h / concentration at 144 h / concentration at 192 h / concentration at 240 h / concentration at 312 h / concentration at 384 h / concentration at 480 h / concentration at 648 h / concentration at 696 h / concentration at 864 h / concentration at 1032 h / concentration at 1200 h / concentration at 1368 h / concentration at 1536 h / concentration at 1704 h / concentration at 1872 h / concentration at 2040 h / concentration at 2208 h: plasma concentration of TMC278, single SC 5 mg/kg TMC278 nanosuspension; for AUC(0-t) / Cmax / Tmax: single SC 5 mg/kg TMC278 nanosuspension; for Cmax: read-out: Cmax; for Tmax: read-out: Tmax;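 on all read-outs here: healthy male beagle dogs injected in both biceps femoris muscles (IM) or both thoracal sides (SC), total volume 0.2 mL/kg, drug measured in plasma from blood samples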
Experimental: Six healthy male beagle dogs with body weights ranging from 8 to 16 kg at the start of the study, were used. Each dog was identified by an ear tattoo number. Two dogs were dosed intramuscularly (IM) in the left and right m. biceps femoris (treatment group A). […] Two dogs were dosed subcutaneously (SC) in the left and right thoracal region. The injection volume was 2×0.1 ml/kg in all treatment groups. A 20 G needle was used.
Blood samples of 3 ml were taken from the left jugular vein from all dogs on day 0 at 0 h (predose), 20 min, 1 h, 3 h, 8 h and 24 h post-dose and further on days 2, 3, 6, 8, 10, 13, 16, 20, 23, 27, 29, 36, 43, 50, 57, 64, 71, 78, 85 and 92 at approximately 8 AM. Blood samples were placed on EDTA, EDTA Vacuette Greiner, Cat. No. 454086, Greiner Labortechnik N.V.). Within 2 h of blood sampling, samples were centrifuged at room temperature at about 1900×g for 10 minutes to allow plasma separation. Plasma was immediately transferred into a second tube and stored in the freezer within 2 hours after the start of centrifugation.

[2] = tested on: wild type HIV; details: cited from earlier work
[3] = tested on: mutated variants of HIV; details: many of its mutated variants; cited from earlier work

## Cc1cc(C=CC#N)cc(C)c1Nc1ccnc(Nc2ccc(C#N)cc2)n1 [TMC278, 4-[[4-[[4-(2-cyanoethenyl)-2,6-dimethylphenyl]amino]-2-pyrimidinyl]amino]benzonitrile]
[1]; dog 19129, 0 h (d0, predose)
  concentration at 0 h: < 1 ng/mL
[1]; dog 19129, 1 h
  concentration at 1 h: 1.62 ng/mL
[1]; dog 19129, 3 h
  concentration at 3 h: 7.96 ng/mL
[1]; dog 19129, 8 h
  concentration at 8 h: 27.6 ng/mL
[1]; dog 19129, 24 h (d1)
  concentration at 24 h: 15.7 ng/mL
[1]; dog 19129, 48 h (d2)
  concentration at 48 h: 34.8 ng/mL
[1]; dog 19129, 72 h (d3)
  concentration at 72 h: 26.1 ng/mL
[1]; dog 19129, 144 h (d6)
  concentration at 144 h: 18.9 ng/mL
[1]; dog 19129, 192 h (d8)
  concentration at 192 h: 17.7 ng/mL
[1]; dog 19129, 240 h (d10)
  concentration at 240 h: 24.3 ng/mL
[1]; dog 19129, 312 h (d13)
  concentration at 312 h: 21.7 ng/mL
[1]; dog 19129, 384 h (d16)
  concentration at 384 h: 21.7 ng/mL
[1]; dog 19129, 480 h (d20)
  concentration at 480 h: 29.8 ng/mL
[1]; dog 19129, 648 h (d27)
  concentration at 648 h: 19 ng/mL
[1]; dog 19129, 696 h (d29)
  concentration at 696 h: 21 ng/mL
[1]; dog 19129, 864 h (d36)
  concentration at 864 h: 12.7 ng/mL
[1]; dog 19129, 1032 h (d43)
  concentration at 1032 h: 5.22 ng/mL
[1]; dog 19129, 1200 h (d50)
  concentration at 1200 h: 6.37 ng/mL
[1]; dog 19129, 1368 h (d57)
  concentration at 1368 h: 4.78 ng/mL
[1]; dog 19129, 1536 h (d64)
  concentration at 1536 h: 6.45 ng/mL
[1]; dog 19129, 1704 h (d71)
  concentration at 1704 h: 3.96 ng/mL
[1]; dog 19129, 1872 h (d78)
  concentration at 1872 h: 3.66 ng/mL
[1]; dog 19129, 2040 h (d85)
  concentration at 2040 h: 8.6 ng/mL
[1]; dog 19129, 2208 h (d92)
  concentration at 2208 h: 3.05 ng/mL
[1]; dog 19349, 0 h (d0, predose)
  concentration at 0 h: < 1 ng/mL
[1]; dog 19349, 1 h
  concentration at 1 h: 1.37 ng/mL
[1]; dog 19349, 3 h
  concentration at 3 h: 8.42 ng/mL
[1]; dog 19349, 8 h
  concentration at 8 h: 13.8 ng/mL
[1]; dog 19349, 24 h (d1)
  concentration at 24 h: 28.5 ng/mL
[1]; dog 19349, 48 h (d2)
  concentration at 48 h: 29.1 ng/mL
[1]; dog 19349, 72 h (d3)
  concentration at 72 h: 30.6 ng/mL
[1]; dog 19349, 144 h (d6)
  concentration at 144 h: 32.7 ng/mL
[1]; dog 19349, 192 h (d8)
  concentration at 192 h: 23 ng/mL
[1]; dog 19349, 240 h (d10)
  concentration at 240 h: 42 ng/mL
[1]; dog 19349, 312 h (d13)
  concentration at 312 h: 38.8 ng/mL
[1]; dog 19349, 384 h (d16)
  concentration at 384 h: 16.6 ng/mL
[1]; dog 19349, 480 h (d20)
  concentration at 480 h: 21.2 ng/mL
[1]; dog 19349, 648 h (d27)
  concentration at 648 h: 11 ng/mL
[1]; dog 19349, 696 h (d29)
  concentration at 696 h: 10.5 ng/mL
[1]; dog 19349, 864 h (d36)
  concentration at 864 h: 5.49 ng/mL
[1]; dog 19349, 1032 h (d43)
  concentration at 1032 h: 6.03 ng/mL
[1]; dog 19349, 1200 h (d50)
  concentration at 1200 h: 3.4 ng/mL
[1]; dog 19349, 1368 h (d57)
  concentration at 1368 h: 2.52 ng/mL
[1]; dog 19349, 1536 h (d64)
  concentration at 1536 h: 2.05 ng/mL
[1]; dog 19349, 1704 h (d71)
  concentration at 1704 h: 3.57 ng/mL
[1]; dog 19349, 1872 h (d78)
  concentration at 1872 h: 1.91 ng/mL
[1]; dog 19349, 2040 h (d85)
  concentration at 2040 h: 2.82 ng/mL
[1]; dog 19349, 2208 h (d92)
  concentration at 2208 h: 2.49 ng/mL
[1]; mean of 2 dogs, 0 h (d0, predose)
  concentration at 0 h: < 1 ng/mL
[1]; mean of 2 dogs, 1 h
  concentration at 1 h: 1.5 ng/mL
[1]; mean of 2 dogs, 3 h
  concentration at 3 h: 8.19 ng/mL
[1]; mean of 2 dogs, 8 h
  concentration at 8 h: 20.7 ng/mL
[1]; mean of 2 dogs, 24 h (d1)
  concentration at 24 h: 22.1 ng/mL
[1]; mean of 2 dogs, 48 h (d2)
  concentration at 48 h: 32 ng/mL
[1]; mean of 2 dogs, 72 h (d3)
  concentration at 72 h: 28.4 ng/mL
[1]; mean of 2 dogs, 144 h (d6)
  concentration at 144 h: 25.8 ng/mL
[1]; mean of 2 dogs, 192 h (d8)
  concentration at 192 h: 20.4 ng/mL
[1]; mean of 2 dogs, 240 h (d10)
  concentration at 240 h: 33.2 ng/mL
[1]; mean of 2 dogs, 312 h (d13)
  concentration at 312 h: 30.3 ng/mL
[1]; mean of 2 dogs, 384 h (d16)
  concentration at 384 h: 19.2 ng/mL
[1]; mean of 2 dogs, 480 h (d20)
  concentration at 480 h: 25.5 ng/mL
[1]; mean of 2 dogs, 648 h (d27)
  concentration at 648 h: 15 ng/mL
[1]; mean of 2 dogs, 696 h (d29)
  concentration at 696 h: 15.8 ng/mL
[1]; mean of 2 dogs, 864 h (d36)
  concentration at 864 h: 9.1 ng/mL
[1]; mean of 2 dogs, 1032 h (d43)
  concentration at 1032 h: 5.63 ng/mL
[1]; mean of 2 dogs, 1200 h (d50)
  concentration at 1200 h: 4.89 ng/mL
[1]; mean of 2 dogs, 1368 h (d57)
  concentration at 1368 h: 3.65 ng/mL
[1]; mean of 2 dogs, 1536 h (d64)
  concentration at 1536 h: 4.25 ng/mL
[1]; mean of 2 dogs, 1704 h (d71)
  concentration at 1704 h: 3.77 ng/mL
[1]; mean of 2 dogs, 1872 h (d78)
  concentration at 1872 h: 2.79 ng/mL
[1]; mean of 2 dogs, 2040 h (d85)
  concentration at 2040 h: 5.71 ng/mL
[1]; mean of 2 dogs, 2208 h (d92)
  concentration at 2208 h: 2.77 ng/mL
[1]; dog 19129, read-out: AUC0-312 h
  AUC(0-t): 6910 ng·h/mL
[1]; dog 19129, read-out: AUC0-696 h
  AUC(0-t): 15900 ng·h/mL
[1]; dog 19129, read-out: AUC0-2208 h
  AUC(0-t): 26400 ng·h/mL
[1]; dog 19129
  Cmax: 34.8 ng/mL
  Tmax: 48 h
[1]; dog 19349, read-out: AUC0-312 h
  AUC(0-t): 9880 ng·h/mL
[1]; dog 19349, read-out: AUC0-696 h
  AUC(0-t): 16700 ng·h/mL
[1]; dog 19349, read-out: AUC0-2208 h
  AUC(0-t): 22400 ng·h/mL
[1]; dog 19349
  Tmax: 240 h
[1]; mean of 2 dogs, read-out: AUC0-312 h
  AUC(0-t): 8400 ng·h/mL
[1]; mean of 2 dogs, read-out: AUC0-696 h
  AUC(0-t): 16300 ng·h/mL
[1]; mean of 2 dogs, read-out: AUC0-2208 h
  AUC(0-t): 24400 ng·h/mL
[1]; mean of 2 dogs
  Cmax: 38.4 ng/mL
  Tmax: 144 h
[2]
  activity against wild type HIV (in words): pronounced activity
[3]
  activity against mutated variants of HIV (in words): pronounced activity
